Reference: publication PMC10999543, “Identification of kinase modulators as host-directed therapeutics against intracellular methicillin-resistant Staphylococcus aureus” (Frontiers in Cellular and Infection Microbiology, 2024)
Where two headings read alike, the source gives them in different places.

Key:
[1] = system: intracellular MRSA in MCF7 cells; experiment: Gentamicin protection assay with CFU count in MRSA-infected MCF7 cells; format: cell-based, Staphylococcus aureus; settings: 10 µM, n=7
Protocol: (§1) The cells were resuspended in cell culture medium without antibiotics, seeded with 10,000 cells/well into Costar flat-bottom 96-well plates (Corning, Amsterdam, the Netherlands), and were incubated overnight at 37°C/5% CO2. The next day, the bacteria were centrifuged at ≥1800 g for 15 min and resuspended in cold PBS + 5 mM ethylenediaminetetraacetic acid (EDTA). The number of CFUs present in the bacterial suspension was estimated from the optical density at 600 nm (OD600) by assuming 8x10^8 CFUs to be present in a bacterial suspension with OD600 = 1, based on prior titrations. The bacterial suspension was diluted in cell culture medium without antibiotics and added to the cells. Accuracy of the multiplicity of infection (MOI) was validated by plating serial dilutions of the MRSA inoculums on Difco TS agar plates (BD Biosciences). The calculated mean MOI throughout all experiments was 6.8 ± 4.6 (mean ± SD). Infected cells were centrifuged for 3 min at 150 g and incubated for 1 hour at 37°C/5% CO2. Next, the cells were incubated with fresh cell culture medium supplemented with 30 µg/ml gentamicin sulphate (Lonza BioWhittaker, Basel, Switzerland) for 15 min at 37°C/5% CO2 to kill residual extracellular bacteria. Infected cells were incubated overnight at 37°C/5% CO2 in cell culture medium in the presence of kinase inhibitors and 5 µg/ml gentamicin sulphate-containing medium to prevent the growth of extracellular bacteria. The solvent of the compounds, DMSO, was used at equal % v/v as a negative control. For the screen, each compound was tested in triplicate, on separate cell culture plates, resulting in triplicate values for each kinase inhibitor.
(§2) Infected cells were lysed in sterile water + 0.05% UltraPure SDS solution (Invitrogen, ThermoFisher Scientific) to release intracellular bacteria. Bacterial suspensions and lysates of cells infected with MRSA were 5-fold serially diluted and 10-μl drops were plated on square TS agar plates. The plates were left to dry and incubated overnight at 37°C/5% CO2.

[2] = system: HeLa cells; format: cell-based, human; settings: for cytotoxicity / cell viability by LDH-release: 30 µM
Protocol: Before harvesting or lysing the cells of the intracellular infection assays, the supernatant from the cells was collected to quantify LDH release by the cells using the LDH cytotoxicity detection kit (Roche, Merck, Darmstadt, Germany) according to the manufacturer’s instructions. Triton X-100 results in maximum LDH release by permeabilizing the cells and was used as positive control. Quantification was performed with the EnVision plate reader.

[3] = system: HeLa, MelJuSo, A549, MCF7 and PMA-differentiated THP-1 cells; experiment: Light microscopy of cell morphology (cytopathogenic effects); format: cell-based, human; settings: for changes in cell morphology / cytopathogenic effects by light microscopy: 10 µM, HeLa, MelJuSo, A549, MCF7, THP-1 cells
[4] = system: intracellular MRSA in HeLa cells; experiment: Gentamicin protection assay with CFU count in MRSA-infected HeLa cells; format: cell-based, Staphylococcus aureus; settings: for reduction of intracellular bacterial burden (CFU): validation of 17 hit compounds, Figure 2A; for reduction in bacterial burden (CFU): Figure 2B, n=17
Summary of the method: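 Cells infected with MRSA (mean MOI 6.8 ± 4.6) for 1 hour at 37°C, extracellular bacteria killed with 30 µg/ml gentamicin for 15 min, then overnight with kinase inhibitor plus 5 µg/ml gentamicin; DMSO as negative control. Cells lysed in water with 0.05% SDS, lysates serially diluted and plated for CFU; triplicate per compound.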

[5] = system: HeLa cells; experiment: Compound screen by flow cytometry: HeLa cell count as surrogate readout of cell viability (z-scoreHeLa); format: cell-based, human; settings: for cell count rep 1 / z-scoreHeLa rep 1: replicate 1; for cell count rep 2 / z-scoreHeLa rep 2: replicate 2; for cell count rep 3 / z-scoreHeLa rep 3: replicate 3; for z-scoreHeLa mean: mean of 3 replicates
Summary of the method: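 The viability surrogate was the count of fixed HeLa cells by flow cytometry, converted to z-scores against DMSO controls with values deviating two-fold excluded. Before counting, cells had been infected with MRSA for 1 h and cleared of extracellular bacteria with gentamicin. They were then exposed overnight to kinase inhibitors in triplicate.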

[6] = system: intracellular MRSA; format: cell-based, Staphylococcus aureus; settings: for %GFP+ rep 1 / z-scoreMRSA+ rep 1: replicate 1; for %GFP+ rep 2 / z-scoreMRSA+ rep 2: replicate 2; for %GFP+ rep 3 / z-scoreMRSA+ rep 3: replicate 3; for z-scoreMRSA+ mean: mean of 3 replicates
Summary of the method: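 Values are z-scores: GFP-positive HeLa percentage and event count per well against plate statistics, minus the mean DMSO z-score. Wells deviating two-fold from controls were left out of plate means. Infection was at a mean MOI of 6.8, with an overnight compound exposure.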

[7] = system: intracellular MRSA in MelJuSo cells; experiment: Gentamicin protection assay with CFU count in MRSA-infected MelJuSo cells; format: cell-based, Staphylococcus aureus; settings: 10 µM, n=7
Protocol: as §1, §2

[8] = system: zebrafish embryos; experiment: Zebrafish embryo toxicity test; format: in vivo; settings: for further signs of toxicity in zebrafish embryos: serial dilutions; for concentration well tolerated in zebrafish embryos: wild type AB/TL
Protocol: All experiments with zebrafish were done on embryos or larvae up to 5 days post fertilization, which have not yet reached the free-feeding stage and which were of the wild type AB/TL line. Fertilized embryos were maintained at 28°C and kept in egg water containing 60 μg/ml Instant Ocean Sea Salt (Sera, Heinsberg Germany). Zebrafish embryos were dechorionated with Dumont #5 forceps (Fine Science Tools Inc., Foster City, CA, USA) at 24 hours post fertilization (hpf) and transferred to 96-wells plates with each well containing a single embryo. Subsequently, the embryos were treated with kinase inhibitors or DMSO at 30 hpf. The health status of the embryos was assessed at 120 hpf. Healthy embryos were given a health score of 5. Health points were withdrawn for each of the following symptoms: no responsiveness to physical stimulation, cranial malformations, oedema or tail malformations. Dead embryos were given a health score of 0.

[9] = PKIS compound screen raw data, HeLa cell count
[10] = PKIS compound screen, HeLa cell count
[11] = PKIS compound screen, Yes/No call
[12] = PKIS compounds raw data, HeLa cell count
[13] = PKIS compound screen raw data, MRSA-infected HeLa cells
[14] = PKIS compound screen, MRSA-infected HeLa cells
[15] = PKIS compound screen, Yes/No call (effect without cell death)
[16] = PKIS compounds raw data, MRSA-infected HeLa cells
[17] = compound screen, HeLa cell count
[18] = compound screen, MRSA-infected HeLa cells

CC(C)c1nc(-c2cccc(NS(=O)(=O)c3c(F)cccc3F)c2F)c(-c2ccnc(Nc3ccc(N4CCOCC4)nc3)n2)s1 [GSK2008607A]
reduction in bacterial burden (CFU) [1]: reductions in CFU counts
cytotoxicity / cell viability by LDH-release ([2]; MRSA-infected HeLa cells): became cytotoxic
cytopathogenic effects in HeLa cells ([3]; 1 µM): cytopathogenic effects were already observed
changes in cell morphology / cytopathogenic effects by light microscopy [3]: cytopathogenic effects were observed
reduction of intracellular bacterial burden (CFU) ([4]; 10 µM): 56%
reduction in bacterial burden (CFU) ([4]; HeLa cells, 10 µM): 72%
lowest concentration acting against intracellular MRSA (titration) ([4]; MRSA-infected HeLa cells): 10 nM
cell count rep 1 [5, 9]: 21178
cell count rep 2 [5, 9]: 14585
cell count rep 3 [5, 9]: 12213
z-scoreHeLa mean [5, 10]: -1.56
z-scoreHeLa rep 1 [5, 10]: -1.53
z-scoreHeLa rep 2 [5, 10]: -1.83
z-scoreHeLa rep 3 [5, 10]: -1.31
cell death [5, 11]: No
cell death ([5]; PKIS compound screen, Yes/No call on z-scoreHeLa): No
z-scoreHeLa mean ([5]; PKIS compound screen): -1.34
z-scoreHeLa rep 1 ([5]; PKIS compound screen): -1.52
z-scoreHeLa rep 2 ([5]; PKIS compound screen): -1.39
z-scoreHeLa rep 3 ([5]; PKIS compound screen): -1.10
cell count rep 1 [5, 12]: 3519
cell count rep 2 [5, 12]: 3908
cell count rep 3 [5, 12]: 3860
%GFP+ rep 1 [6, 13]: 8.4%
%GFP+ rep 2 [6, 13]: 9.2%
%GFP+ rep 3 [6, 13]: 10.2%
z-scoreMRSA+ mean [6, 14]: -2.86
z-scoreMRSA+ rep 1 [6, 14]: -2.77
z-scoreMRSA+ rep 2 [6, 14]: -2.79
z-scoreMRSA+ rep 3 [6, 14]: -3.01
effect [6, 11]: No
hit [6, 15]: No and Yes
effect ([6]; PKIS compound screen, Yes/No call on z-scoreMRSA+): Yes
z-scoreMRSA+ mean ([6]; PKIS compound screen): -0.97
z-scoreMRSA+ rep 1 ([6]; PKIS compound screen): -1.10
z-scoreMRSA+ rep 2 ([6]; PKIS compound screen): -1.14
z-scoreMRSA+ rep 3 ([6]; PKIS compound screen): -0.66
%GFP+ rep 1 [6, 16]: 21.4%
%GFP+ rep 2 [6, 16]: 20.1%
%GFP+ rep 3 [6, 16]: 23.7%
reduction in bacterial burden (CFU) [7]: 81%
embryos that died, of 15 ([8]; 1 µM, 120 hpf): one
symptoms of surviving zebrafish embryos ([8]; 3 and 10 µM, 120 hpf): oedema of the heart sac and yolk, as well as unresponsiveness to physical stimulation
zebrafish embryo mortality ([8]; 3 and 10 µM, treated 30 hpf, scored 120 hpf): caused zebrafish embryo mortality
concentrations exhibiting toxicity in zebrafish embryos ([8]; zebrafish, in vivo): ≥ 1 µM
embryos that did not respond to physical stimulation, of 15 ([8]; zebrafish, in vivo): another
embryos with cranial malformations, of 15 ([8]; zebrafish, in vivo): two
embryos with oedema, of 15 ([8]; zebrafish, in vivo): three

COc1ccc2[nH]c3c4[nH]c5ccc(OC)cc5c4c4c(c3c2c1)C(=O)NC4=O [GW296115X]
reduction in bacterial burden (CFU) [1]: 75%
cytotoxicity / cell viability by LDH-release ([2]; MRSA-infected HeLa cells): limited cytotoxicity
cell viability of MRSA-infected cells ([2]; HeLa cells, Figure 5K): able to fully restore the loss in cell viability
cell viability of MRSA-infected cells (LDH-release) ([2]; MRSA-infected HeLa cells, 10 µM, Figure 2G): rescued the loss of viability
host cell viability when bafilomycin A1 is added ([2]; MRSA-infected HeLa cells, combined with bafilomycin A1 (100 nM), Figure 5I): reverted
changes in cell morphology / cytopathogenic effects by light microscopy [3]: slight changes in cell morphology
reduction of intracellular bacterial burden (CFU) ([4]; 10 µM): 67%
reduction in bacterial burden (CFU) ([4]; HeLa cells, 10 µM): 70%
bacterial killing when bafilomycin A1 is added ([4]; HeLa cells, combined with bafilomycin A1 (100 nM), Figure 5H): reverted
reduction of the intracellular bacterial burden, maximal ([4]; MRSA-infected HeLa cells, titration): up to 80%
Emax ([4]; Staphylococcus aureus, MRSA, HeLa): -80%
IC50 ([4]; Staphylococcus aureus, MRSA, HeLa, read-out: IC50 for reduction of intracellular bacterial burden): 159 nM
cell count rep 1 [5, 12]: 4446
cell count rep 2 [5, 12]: 4236
cell count rep 3 [5, 12]: 6955
cell death ([5]; Yes/No call from z-scoreHeLa): No
z-scoreHeLa mean [5, 17]: -0.11
z-scoreHeLa rep 1 [5, 17]: -0.30
z-scoreHeLa rep 2 [5, 17]: -0.0242
z-scoreHeLa rep 3 [5, 17]: -0.00316
z-scoreMRSA+ (z-score of GFP-positive cells) ([6]; 10 µM, 24 h, HeLa cells infected with GFP-expressing MRSA): -3.82
MRSA-infected cells (mean ± SD) ([6]; 10 µM, 24 h, HeLa cells, DMSO 14.6% ± 1.0%): 2.1% ± 0.26
%GFP+ rep 1 [6, 16]: 2.3%
%GFP+ rep 2 [6, 16]: 1.8%
%GFP+ rep 3 [6, 16]: 2.2%
effect ([6]; Yes/No call from z-scoreMRSA+): Yes
hit ([6]; Yes/No: effect without cell death): Yes
z-scoreMRSA+ mean [6, 18]: -3.82
z-scoreMRSA+ rep 1 [6, 18]: -3.48
z-scoreMRSA+ rep 2 [6, 18]: -3.91
z-scoreMRSA+ rep 3 [6, 18]: -4.06
reduction in bacterial burden (CFU) [7]: 88%
further signs of toxicity in zebrafish embryos ([8]; 120 hpf): no further signs of toxicity were observed
concentration well tolerated in zebrafish embryos ([8]; zebrafish, in vivo): ≤ 10 µM

O=S(=O)(CCNCc1ccc(-c2ccc3ncnc(Nc4ccc(OCc5cccc(F)c5)c(Cl)c4)c3c2)o1)c1ccccc1 [GW633459A]
reduction in bacterial burden (CFU) [1]: reductions in CFU counts
cytotoxicity / cell viability by LDH-release ([2]; MRSA-infected HeLa cells): only marginally affected
changes in cell morphology / cytopathogenic effects by light microscopy [3]: not observed
CFU (% of DMSO) at 10 µM ([4]; 10 µM, MRSA-infected HeLa cells): 41.2 % of DMSO
reduction of intracellular bacterial burden (CFU) ([4]; 10 µM): 59%
reduction in bacterial burden (CFU) ([4]; HeLa cells, 10 µM): 50%
lowest concentration acting against intracellular MRSA (titration) ([4]; MRSA-infected HeLa cells): 10 nM
cell death [5, 11]: No
z-scoreHeLa mean ([5]; PKIS compound screen): 0.80
z-scoreHeLa rep 1 ([5]; PKIS compound screen): 0.28
z-scoreHeLa rep 2 ([5]; PKIS compound screen): 0.72
z-scoreHeLa rep 3 ([5]; PKIS compound screen): 1.40
cell count rep 1 [5, 12]: 5085
cell count rep 2 [5, 12]: 5223
cell count rep 3 [5, 12]: 9893
effect [6, 11]: Yes
hit [6, 15]: Yes
z-scoreMRSA+ mean ([6]; PKIS compound screen): -2.34
z-scoreMRSA+ rep 1 ([6]; PKIS compound screen): -2.22
z-scoreMRSA+ rep 2 ([6]; PKIS compound screen): -2.06
z-scoreMRSA+ rep 3 ([6]; PKIS compound screen): -2.75
%GFP+ rep 1 [6, 16]: 6.2%
%GFP+ rep 2 [6, 16]: 7.3%
%GFP+ rep 3 [6, 16]: 6.6%
reduction in bacterial burden (CFU) [7]: 81%
further signs of toxicity in zebrafish embryos ([8]; 120 hpf): no further signs of toxicity were observed
concentration well tolerated in zebrafish embryos ([8]; zebrafish, in vivo): ≤ 10 µM
